The term IC50 denotes the concentration needed to halve the response being measured.

Counter-ions that a name gives are not always drawn. Like-named read-outs stand apart in the source and are kept apart here.

The target of the assay is Recombinant Btk (Homo sapiens (Human), UniProt Q06187). The assay can be described thus: BTK kinase assay (TR-FRET). The settings on record: 1 hour pre-incubation, ATP at Km. A general note: In TR-FRET formats the signal depends on donor and acceptor labels being close together.
Sequence of Recombinant Btk (Q06187 whole entry): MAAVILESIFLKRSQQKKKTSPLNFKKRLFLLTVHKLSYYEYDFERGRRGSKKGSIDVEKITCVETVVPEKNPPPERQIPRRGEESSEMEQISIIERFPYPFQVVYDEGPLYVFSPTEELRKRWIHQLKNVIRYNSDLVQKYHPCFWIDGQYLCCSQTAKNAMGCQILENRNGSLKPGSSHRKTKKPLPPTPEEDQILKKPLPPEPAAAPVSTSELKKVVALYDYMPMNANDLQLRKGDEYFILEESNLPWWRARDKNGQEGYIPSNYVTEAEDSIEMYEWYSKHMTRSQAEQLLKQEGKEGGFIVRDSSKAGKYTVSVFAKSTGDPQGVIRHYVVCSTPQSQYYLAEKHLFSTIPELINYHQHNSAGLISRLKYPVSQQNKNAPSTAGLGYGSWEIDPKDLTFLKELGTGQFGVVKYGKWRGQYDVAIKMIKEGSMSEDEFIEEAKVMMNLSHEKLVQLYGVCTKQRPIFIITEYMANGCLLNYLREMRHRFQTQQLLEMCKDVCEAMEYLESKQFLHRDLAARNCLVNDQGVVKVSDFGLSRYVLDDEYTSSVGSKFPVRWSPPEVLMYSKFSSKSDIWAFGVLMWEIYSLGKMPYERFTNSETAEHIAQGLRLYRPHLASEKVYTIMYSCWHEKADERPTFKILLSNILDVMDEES

As to `CC=CC(=O)N1CCc2[nH]c3c(C(N)=O)c(-c4ccc(Oc5ccccc5)cc4)nn3c2C1` [Compound 58, 7-(But-2-enoyl)-2-(4-phenoxyphenyl)-5,6,7,8-tetrahydro-4H-pyrazolo [5′,1′:2,3]imidazo[4,5-c]pyridine-3-carboxamide], the 50% inhibitory concentration (IC50) (read-out: IC50 (nM) Btk) came out at 0.43 nM.
Take `NC(=O)c1c(-c2ccc(Oc3ccccc3)cc2)nn2c1[nH]c1cccc(N)c12` [Compound 131, 8-amino-2-(4-phenoxyphenyl)-4H-benzo[4,5]imidazo[1,2-b]pyrazole-3-carboxamide]: where the note is “read-out: IC50 (nM) Btk”, the IC50 was found to be 170 nM.
As to `NC(=O)c1c(-c2ccc(Oc3ccccc3)cc2)nn2c1NC(=O)Cc1cc([N+](=O)[O-])ccc1-2` [Compound 73, 8-Nitro-5-oxo-2-(4-phenoxyphenyl)-5,6-dihydro-4H-benzo[f]pyrazolo[1,5-a][1,3]diazepine-3-carboxamide], for the setting “read-out: IC50 (nM) Btk”, the IC50 was more than 10000 nM.
Regarding `CC(=O)N1CCc2[nH]c3c(C(N)=O)c(-c4ccc(Oc5ccccc5)cc4)nn3c2C1` [Compound 55, 7-Acetyl-2-(4-phenoxyphenyl)-5,6,7,8-tetrahydro-4H-pyrazolo[5′,1′:2,3]imidazo [4,5-c]pyridine-3-carboxamide], the half-inhibitory concentration (IC50) (read-out: IC50 (nM) Btk) was found to be 82 nM.
`NC(=O)c1c(-c2ccc(OCC3CC3)cc2)nn2c1NCCC2c1ccccc1N` (stereo not drawn) [Compound 19, 7-(2-Aminophenyl)-2-(4-(cyclopropylmethoxy)phenyl)-4,5,6,7-tetrahydropyrazolo[1,5-a]pyrimidine-3-carboxamide]: under “read-out: IC50 (nM) Btk”, the concentration for half-maximal inhibition (IC50) is 5300 nM.
`C=CC(=O)Nc1ccccc1C1CCNc2c(C(N)=O)c(-c3ccc(OCc4ccccc4)cc3)nn21` (single isomer, unassigned) [Compound 10b]: the half-inhibitory concentration (IC50) (IC50 (nM) Btk) was found to be 42 nM.
With `C=CC(=O)Nc1ccc(Cl)c(C2CCNc3c(C(N)=O)c(-c4ccc(Oc5ccccc5)cc4)nn32)c1` (stereo not drawn) [Compound 96, 7-(5-acrylamido-2-chlorophenyl)-2-(4-phenoxyphenyl)-4,5,6,7-tetrahydropyrazolo[1,5-a]pyrimidine-3-carboxamide], the IC50 (read-out: IC50 (nM) Btk) came out at 30 nM.
On to `C=CC(=O)NCC1CCNc2c(C(N)=O)c(-c3cnn(Cc4ccccc4)c3)nn21` (stereo not drawn) [Compound 37, 7-(Acrylamidomethyl)-2-(1-benzyl-1H-pyrazol-4-yl)-4,5,6,7-tetrahydropyrazolo[1,5-a]pyrimidine-3-carboxamide], for which the concentration for half-maximal inhibition (IC50) (read-out: IC50 (nM) Btk) turned out to be 640 nM.
Take `NC(=O)c1c(-c2ccc(Oc3ccccc3)cc2)nn2c1NCC21CCNCC1` [Compound 39, 6-(4-Phenoxyphenyl)-1,2-dihydrospiro[imidazo[1,2-b]pyrazole-3,4′-piperidine]-7-carboxamide]: the 50% inhibitory concentration (IC50) (read-out: IC50 (nM) Btk) came out at 1400 nM.
`C=CC(=O)Nc1ccccc1C1CCNc2c(C(N)=O)c(-c3ccc(C(F)(F)F)c(Cl)c3)nn21` (stereo not drawn) [Compound 162, 7-(2-Acrylamidophenyl)-2-(3-chloro-4-(trifluoromethyl)phenyl)-4,5,6,7-tetrahydropyrazolo[1,5-a]pyrimidine-3-carboxamide]: for the setting “read-out: IC50 (nM) Btk”, the IC50 amounted to 2.1 nM.
On to `C=CC(=O)N1CC2(CCNc3c(C(N)=O)c(-c4ccc(Oc5ccccc5)cc4)nn32)C1` [Compound 119, 1-acryloyl-2′-(4-phenoxyphenyl)-5′,6′-dihydro-4′H-spiro[azetidine-3,7′-pyrazolo[1,5-a]pyrimidine]-3′-carboxamide], for which the concentration for half-maximal inhibition (IC50) (read-out: IC50 (nM) Btk) is 40 nM.
On the same count and under the same terms, next, `CC#CC(=O)N1CCC(C2CCNc3c(C(N)=O)c(-c4ccc(Oc5cccc(Cl)c5)cc4)nn32)CC1` (stereo not drawn) [Compound 195, 7-(1-(But-2-ynoyl)piperidin-4-yl)-2-(4-(3-chlorophenoxy)phenyl)-4,5,6,7-tetrahydropyrazolo[1,5-a]pyrimidine-3-carboxamide]: 8 nM; `CN(C)CC#CC(=O)N1CCC([C@@H]2CCNc3c(C(N)=O)c(-c4ccc(Oc5ccccc5)cc4)nn32)CC1` [Compound 188, (S)-7-(1-(4-(Dimethylamino)but-2-ynoyl)piperidin-4-yl)-2-(4-phenoxyphenyl)-4,5,6,7-tetrahydropyrazolo[1,5-a]pyrimidine-3-carboxamide]: 1.1 nM.
For `CCC#CC(=O)N1CCC([C@@H]2CCNc3c(C(N)=O)c(-c4ccc(Oc5ccccc5)cc4)nn32)CC1` [Compound 186, (S)-7-(1-(Pent-2-ynoyl)piperidin-4-yl)-2-(4-phenoxyphenyl)-4,5,6,7-tetrahydropyrazolo[1,5-a]pyrimidine-3-carboxamide], the half-maximal inhibitory concentration (IC50) (read-out: IC50 (nM) Btk) stood at 1.1 nM.
As for `C=CC(=O)Nc1ccccc1C1CCNc2c(C(N)=O)c(-c3ccc(F)c(Cl)c3)nn21` (stereo not drawn) [Compound 196, 7-(2-Acrylamidophenyl)-2-(3-chloro-4-fluorophenyl)-4,5,6,7-tetrahydropyrazolo[1,5-a]pyrimidine-3-carboxamide], the IC50 (read-out: IC50 (nM) Btk) was 1.1 nM.
On the same count and under the same terms, as for `C=CC(=O)Nc1ccccc1C1CCNc2c(C(N)=O)c(-c3cc(F)c(F)c(Cl)c3)nn21` (stereo not drawn) [Compound 158, 7-(2-Acrylamidophenyl)-2-(3-chloro-4.5-difluorophenyl)-4,5,6,7-tetrahydropyrazolo[1,5-a]pyrimidine-3-carboxamide], the figure is 2.9 nM.
With `C=CC(=O)N1CCC(C2(C)CCNc3c(C(N)=O)c(-c4ccc(Oc5ccccc5)cc4)nn32)CC1` (stereo not drawn) [Compound 138, 7-(1-acryloylpiperidin-4-yl)-7-methyl-2-(4-phenoxyphenyl)-4,5,6,7-tetrahydropyrazolo[1,5-a]pyrimidine-3-carboxamide], under “read-out: IC50 (nM) Btk”, the IC50 stood at 1 nM.
`NC(=O)c1c(-c2ccc(Oc3ccccc3)cc2)nn2c1NCC(N)C2` (stereo not drawn) [Compound 84, 6-Amino-2-(4-phenoxyphenyl)-4,5,6,7-tetrahydropyrazolo[1,5-a]pyrimidine-3-carboxamide]: under “read-out: IC50 (nM) Btk”, the half-inhibitory concentration (IC50) worked out at 2900 nM.
As to `C=CC(=O)N1CC(C2CCNc3c(C(N)=O)c(-c4ccc(OCCc5ccccc5)cc4)nn32)C1` (stereo not drawn) [Compound 141, 7-(1-acryloylazetidin-3-yl)-2-(4-phenethoxyphenyl)-4,5,6,7-tetrahydropyrazolo[1,5-a]pyrimidine-3-carboxamide], the half-inhibitory concentration (IC50) (read-out: IC50 (nM) Btk) amounted to 7 nM.
In the case of `C=CC(=O)Nc1ccccc1C1CCNc2c(C(N)=O)c(-c3ccc(F)c(C)c3)nn21` (stereo not drawn) [Compound 157, 7-(2-Acrylamidophenyl)-2-(4-fluoro-3-methylphenyl)-4,5,6,7-tetrahydropyrazolo[1,5-a]pyrimidine-3-carboxamide], for the setting “read-out: IC50 (nM) Btk”, the IC50 worked out at 0.38 nM.
As to `NC(=O)c1c(-c2ccc(Oc3ccccc3)cc2)nn2c1NC(=O)Cc1cc(N)ccc1-2` [Compound 74, 8-Amino-5-oxo-2-(4-phenoxyphenyl)-5,6-dihydro-4H-benzo[f]pyrazolo[1,5-a][1,3]diazepine-3-carboxamide], the IC50 (read-out: IC50 (nM) Btk) is 240 nM.
On to `NC(=O)c1c(-c2ccc(Oc3ccccc3)cc2)nn2c1NC[C@H]1CNC[C@H]12` (relative stereo) [Compound 115], for which, under “read-out: IC50 (nM) Btk”, the half-inhibitory concentration (IC50) was found to be 8200 nM.
With `NC(=O)c1c(-c2ccc(Oc3ccccc3)cc2)nn2c1[nH]c(=O)c1cc(N)ccc12` [Compound 77, 7-Amino-5-oxo-2-(4-phenoxyphenyl)-4,5-dihydropyrazolo[1,5-a]quinazoline-3-carboxamide], where the note is “read-out: IC50 (nM) Btk”, the IC50 came out at 480 nM.
For `NC(=O)c1c(-c2ccc(OCc3ccccc3)cc2)nn2c3c([nH]c12)CCNC3` [Compound 125, 2-(4-(benzyloxy)phenyl)-5,6,7,8-tetrahydro-4H-pyrazolo[5′,1′:2,3]imidazo[4,5-c]pyridine-3-carboxamide formate], the IC50 (read-out: IC50 (nM) Btk) was determined as 5000 nM.
Consider `NC(=O)c1c(-c2ccc(Oc3ccccc3)cc2)nn2c1NCC(c1ccccc1N)C2` (stereo not drawn) [Compound 89, 6-(2-Aminophenyl)-2-(4-phenoxyphenyl)-4,5,6,7-tetrahydropyrazolo[1,5-a]pyrimidine-3-carboxamide], for which, where the note is “read-out: IC50 (nM) Btk”, the IC50 was more than 10000 nM.
As to `NC(=O)c1c(-c2ccc(F)c(Cl)c2)nn2c1NCCC2c1ccccc1NC(=O)/C=C/CN1CCCCC1` (stereo not drawn) [Compound 153, (E)-2-(3-Chloro-4-fluorophenyl)-7-(2-(4-(piperidin-1-yl)but-2-enamido)phenyl)-4,5,6,7-tetrahydropyrazolo[1,5-a]pyrimidine-3-carboxamide], the IC50 (read-out: IC50 (nM) Btk) came to 6.1 nM.
For the compound `C=CC(=O)Nc1ccccc1C1CCNc2c(C(N)=O)c(-c3cc(OC)c(OC)c(OC)c3)nn21` (stereo not drawn) [Compound 167, 7-(2-Acrylamidophenyl)-2-(3,4,5-trimethoxyphenyl)-4,5,6,7-tetrahydropyrazolo[1,5-a]pyrimidine-3-carboxamide], the concentration for half-maximal inhibition (IC50) (read-out: IC50 (nM) Btk) came to 2.4 nM.
With `COCC#CC(=O)N1CCC([C@@H]2CCNc3c(C(N)=O)c(-c4ccc(Oc5ccccc5)cc4)nn32)CC1` [Compound 192, (S)-7-(1-(4-Methoxybut-2-ynoyl)piperidin-4-yl)-2-(4-phenoxyphenyl)-4,5,6,7-tetrahydropyrazolo[1,5-a]pyrimidine-3-carboxamide], under “read-out: IC50 (nM) Btk”, the IC50 was determined as 0.91 nM.
Consider `C=CC(=O)Nc1cc(Cl)ccc1C1CCNc2c(C(N)=O)c(-c3ccc(OCC4CC4)cc3)nn21` (stereo not drawn) [Compound 147, 7-(2-Acrylamido-4-chlorophenyl)-2-(4-(cyclopropylmethoxy)phenyl)-4,5,6,7-tetrahydropyrazolo[1,5-a]pyrimidine-3-carboxamide], for which, under “read-out: IC50 (nM) Btk”, the half-inhibitory concentration (IC50) is 2.7 nM.
Same read-out and setting: next, `CN(C)C/C=C/C(=O)N1CCCc2[nH]c3c(C(N)=O)c(-c4ccc(Oc5ccccc5)cc4)nn3c2C1` [Compound 124, (E)-8-(4-(dimethylamino)but-2-enoyl)-2-(4-phenoxyphenyl)-4,5,6,7,8,9-hexahydropyrazolo[5′,1′:2,3]imidazo[4,5-c]azepine-3-carboxamide]: 0.62 nM; `C=CC(=O)NCC1CCNc2c(C(N)=O)c(-c3ccc(OCC4CC4)cc3)nn21` (stereo not drawn) [Compound 113, 7-(acrylamidomethyl)-2-(4-(cyclopropylmethoxy)phenyl)-4,5,6,7-tetrahydropyrazolo[1,5-a]pyrimidine-3-carboxamide]: 94 nM.
On to `NC(=O)c1c(-c2ccc(Oc3ccccc3)cc2)nn2c1NCCC2c1ccncc1` (stereo not drawn) [Compound 100, 2-(4-phenoxyphenyl)-7-(pyridin-4-yl)-4,5,6,7-tetrahydropyrazolo[1,5-a]pyrimidine-3-carboxamide], for which the concentration for half-maximal inhibition (IC50) (read-out: IC50 (nM) Btk) stood at 260 nM.
With `CNCC1CCNc2c(C(N)=O)c(-c3ccc(Oc4ccccc4)cc3)nn21` (stereo not drawn) [Compound 34, 7-((Methylamino)methyl)-2-(4-phenoxyphenyl)-4,5,6,7-tetrahydro pyrazolo[1,5-a]pyrimidine-3-carboxamide], under “read-out: IC50 (nM) Btk”, the half-inhibitory concentration (IC50) came out at 1900 nM.

For the origin of these results see patent US20250340560A1, “SUBSTITUTED PYRAZOLO[1,5-a]PYRIMIDINES AS BRUTON'S TYROSINE KINASE MODULATORS” (BEIGENE SWITZERLAND GMBH, priority 2013, published 2025).
